Counter-ions that a name gives are not always drawn.
Tested on: voltage operated calcium channels
Assay: Inhibition of potassium (depolarization) stimulated 45Ca uptake into rat cerebral cortex synaptosomes
Format: biochemical, male Wistar rat
Conditions: concentration inhibiting 20% of potassium stimulated 45Ca uptake, corrected for basal uptake, 145 mM KCl, 15 seconds, 37° C.
Description: A high influx of calcium from extracelluar compartments into neurons is seen after opening of voltage operated calcium channels. Such opening of calcium channels may be induced by depolarization of neuronal membranes.
A crude synaptosome preparation contains small vesicles surrounded by neuronal membranes, and it is possible to study an opening of the voltage operated calcium channels in such a preparation.
In the below described test influx of ^45 Ca into synaptosomes is studied under depolarized conditions. The effect of test substances on the depolarization induced calcium uptake can thus be studied.
The cerebral cortex from a male Wistar rat is homogenized in 20 ml ice cold 0.32M saccharose. In the following steps the temperature is kept at 0° C. to 4° C. The homogenate is centrifuged at 1,000×g for 10 minutes and the supernatant recentrifuged for 20 minutes at 18,000×g. […]
The ^45 Ca uptake is stopped by filtering through glass fibre filters, which are subsequently washed 3 times with an ice cold solution of 145 mM KCl, 7 mM EGTA and 20 mM Tris HCl, pH 7.4 (5. ml). The radioactivity on the filters are measured by liquid scintillation spectrometry. […]
The test value is given as IC20, that is the concentration in μM of the test substances, which inhibit 20% of the potassium stimulated uptake of ^45 Ca. […] The IC20 value is determined from a dose response curve.

SMILES: c1ccc(CN2CCN=C2CN(Cc2ccccc2)c2ccccc2)cc1 [1-benzyl-2-(N-phenyl-N-benzyl-methanamine)-4,5-dihydro-imidazole, hydrochloride]
- IC20: 0.4 µM

SMILES: O=C(c1ccccc1)C(c1ccccc1)N1CCN=C1CN(Cc1ccccc1)c1ccccc1 (stereo not drawn) [1-(α-Benzoylbenzyl)-2-(N-phenyl-N-(benzyl)-methanamine)-4,5-dihydro-imidazole]
- IC20: 0.4 µM
